Read-outs that look alike come from different tables or passages of the source.
Legend:
[1] = target: human GABAA α5β2γ1 receptor (Homo sapiens (Human), UniProt P31644+Q8N1C3); assay: Radioligand binding assay for γ1-containing GABAA subtypes, [3H]RO7239181 competition (α5β2γ1)
Description: (§1) The affinity of compounds at GABAA γ1 subunit-containing receptors was measured by competition for [^3H]RO7239181 (67.3 Ci/mmol; Roche) binding to membranes from HEK293F cells (ThermoFisher R79007) expressing human (transiently transfected) receptors of composition α5β2γ1, α2β2γ1, α1β2γ1.
(§2) Harvested pellets from HEK293F cells expressing the different GABAA receptor subtypes were resuspended in Mannitol Buffer pH 7.2-7.4 (Mannitol 0.29 M, Triethylamine 10 mM, Acetic acid 10 mM, EDTA 1 mM plus protease inhibitors (20 tablets Complete, Roche Diagnostics Cat. No. 05 056 489 001 per liter)), washed two times and then resuspended at 1:10 to 1:15 dilution in the same buffer. Cell disruption was performed by stirring the suspension in a Parr vessel #4637 at 435 psi for 15 minutes, and then the suspensions were centrifuged at 1000×g for 15 minutes at 4° C. (Beckman Avanti J-HC; rotor JS-4.2). The supernatant (S1) was transferred in a 2 l Schott flask and the pellet (P1) was resuspended with Mannitol Buffer up to 175 ml. The resuspended pellet was transferred into a 250 ml Corning centrifugal beaker and centrifuged at 1500×g for 10 minutes at 4° C. (Beckman Avanti J-HC; rotor JS-4.2). The supernatant (S1) was then transferred in the 2 l Schott flask and the pellet was discarded. The supernatants (S1) were centrifuged in 500 ml Beckman polypropylene centrifugal beaker at 15′000×g for 30 minutes at 4° C. (Beckman Avanti J-20 XP; rotor JLA-10.500). The pellet (P2) was resuspended with Mannitol Buffer 1:1 and frozen at −80° C. The supernatant (S2) was centrifuged in 100 ml Beckman polypropylene centrifugal tubes at 48000×g for 50 minutes at 4° C. (Beckman Avanti J-20 XP; rotor JA-18). The supernatant (S3) was discarded and the pellet (P3) was resuspended with 1:1 Mannitol Buffer. The P2 and P3 protein concentration was determined with the BIORAD Standard assay method with bovine serum albumin as standard and measured on the NANO-Drop 1000. The membrane suspension was aliquots (500 μl per tube) and stored at −80° C. until required.
(§3) Membrane homogenates were resuspended and polytronised (Polytron PT1200E Kinematica AG) in Potassium Phosphate 10 mM, KCl 100 mM binding buffer at pH 7.4 to a final assay concentration determined with a previous experiment.
(§4) Assays were incubated to equilibrium for 1 hour at 4° C. and then, membranes were filtered onto unifilter (96-well white microplate with bonded GF/C filters preincubated 20-50 minutes in 0.3% Polyethylenimine) with a Filtermate 196 harvester (Packard BioScience) and washed 4 times with cold Potassium Phosphate 10 mM pH 7.4, KCl 100 mM binding buffer. After anhydrousing, filter-retained radioactivity was detected by liquid scintillation counting. Ki values were calculated using Excel-Fit (Microsoft) and are the means of two determinations.

[2] = target: human GABAA α1β3γ2 receptor (Homo sapiens (Human), UniProt P14867+P18507); assay: Radioligand binding assay for γ2-containing GABAA subtypes, [3H]Flumazenil competition (α1β3γ2); settings: for γ2/γ1 Selectivity Ratio: Ki α1β3γ2 (nM)/Ki α2β2γ1 (nM); for LogSel: Log[Ki α1β3γ2 (nM)/Ki α2β2γ1 (nM)]
Description: The affinity of compounds at GABAA γ2 subunit-containing receptors was measured by competition for [^3H]Flumazenil (81.1 Ci/mmol; Roche) binding to HEK293F cells expressing human (transiently transfected) receptors of composition α1β3γ2.
Harvested pellets from HEK293F cells expressing the different GABAA γ2 receptor subtypes were resuspended in Mannitol Buffer pH 7.2-7.4 and processed as described above for the cells expressing the GABAA γ1 subunit-containing receptors.
Assays were incubated to equilibrium for 1 hour at 4° C. and harvested onto GF/C uni-filters (Packard) by filtration using a Packard harvester and washing with ice-cold wash buffer (50 mM Tris; pH 7.5). After anhydrousing, filter-retained radioactivity was detected by liquid scintillation counting. Ki values were calculated using Excel-Fit (Microsoft) and are the means of two determinations.

[3] = target: human GABAA α2β2γ1 receptor (Homo sapiens (Human), UniProt P47869+Q8N1C3); assay: Radioligand binding assay for γ1-containing GABAA subtypes, [3H]RO7239181 competition (α2β2γ1)
Description: as §1, §2, §3, §4

[4] = target: α2β2γ1 GABAA receptor subtype (Homo sapiens (Human), UniProt P47869+Q8N1C3); assay: Two-electrode voltage clamp electrophysiology in Xenopus oocytes expressing GABAA receptors (modulation of GABA EC20 current); assay type: cell-based; settings: for Efficacy (GABA)%: % modulation of GABA EC20 = 100*(Fold increase-1), α2β2γ1 oocytes, compound at approx. 30-fold Ki; for Fold increase h-GABA-A α2β2γ1 oocyte @ 30-fold Ki: Xenopus oocytes expressing α2β2γ1, compound at approx. 30-fold its Ki α2β2γ1, GABA EC20 current
Description: Xenopus laevis oocytes at maturation stages V-VI were used for the expression of cloned mRNA encoding GABAA receptor subunits. Oocytes ready for RNA micro-injection were bought from Ecocyte, Castrop-Rauxel, Germany and stored in modified Barth's medium (composition in mM: NaCl 88, KCl 1, NaHCO3 2.4, HEPES 10, MgSO4 0.82, CaNO3 0.33, CaCl2 0.33, pH=7.5) at 20° C. until the experiment.
Oocytes were plated in 96-well plates for microinjection using the Roboinject automated instrument (MultiChannelSystems, Reutlingen, Germany). Approximately 50 nL of an aqueous solution containing the RNA transcripts for the subunits of the desired GABAA receptor subtype was injected into each oocyte. […] Oocytes were kept in modified Barth's medium (composition in mM: NaCl 88, KCl 1, NaHCO3 […], HEPES 10, MgSO4 0.82, CaNO3 0.33, CaCl2 0.33, pH=7.5) at 20° C. until the experiment.
Electrophysiological experiments were performed using the Roboocyte instrument (MultiChannelSystems, Reutlingen, Germany) on days 3 to 5 after the micro-injection of mRNA. During the experiment the oocytes were constantly superfused by a solution containing (in mM) NaCl 90, KCl 1, HEPES 5, MgCl2 1, CaCl2 1 (pH 7.4). Oocytes were impaled by two glass microelectrodes (resistance: 0.5-0.8 MΩ) which were filled with a solution containing KCl 1M+K-acetate 1.5 M and voltage-clamped to −80 mV. The recordings were performed at room temperature using the Roboocyte two-electrode voltage clamp system (Multichannelsystem). After an initial equilibration period of 1.5 min GABA was added for 1.5 min at a concentration evoking approximately 20% of a maximal current response (EC20). After another rest interval of 2.5 min GABA was again added evoking a response of similar amplitude and shape. […] Current traces were recorded at a digitization rate of 10 Hz during and shortly before and after the GABA application.
Each compound and concentration was tested on at least 3 oocytes. Different oocytes were used for different compound concentrations.
For the analysis, the digitized current traces of the first and second GABA response were superimposed and, if necessary, rescaled to equal maximal amplitudes. The ratio between the two responses during the time interval of test compound application was calculated point by point. The extremum of the resulting “ratio trace” was taken as the efficacy (“Fold increase”) of the compound expressed as “% modulation of GABA EC20” (100*(Fold increase-1)).

[5] = Ki h-GABAA α2β2γ1, [3H]RO7239181 competition binding, human GABAA α2β2γ1
[6] = Ki h-GABAA α2β2γ1, displacement of [3H]RO7239181, membranes of HEK293F cells expressing human receptors, means of two determinations

Row | Structure (SMILES) | Ki [1] [nM] | Ki [2] [nM] | γ2/γ1 Selectivity Ratio [2] | LogSel [2] | Ki [3, 5] [nM] | Ki [3, 6] [nM] | Efficacy (GABA)% [4] [%] | Fold increase h-GABA-A α2β2γ1 oocyte @ 30-fold Ki [4] | γ2/γ1 Selectivity Ratio ([2]; Table 3) | LogSel ([2]; Table 3) | Ki ([2]; read-out: Ki h-GABAA α1β3γ2, Table 3, reference compounds) [nM] | Ki ([3]; Ki h-GABAA α2β2γ1, Table 3, reference compounds) [nM]
1 | [2H]C([2H])([2H])OC1CN(C(=O)c2nc3n(n2)-c2ccc(Cl)c(Cl)c2C(c2c(F)cccc2F)=N[C@H]3C)C1 [Example 17, [(4S)-7,8-dichloro-6-(2,6-difluorophenyl)-4-methyl-4H-[1,2,4]triazolo[1,5-a][1,4]benzodiazepin-2-yl]-[3-(trideuteriomethoxy)azetidin-1-yl]methanone] | 1.3 | 579 | 223.3 | 2.35 | 2.6 | 2.59 | 44 | 1.44 | – | – | – | –
2 | C[C@@H]1N=C(c2c(F)cccc2F)c2c(ccc(Cl)c2Cl)-n2nc(C(F)F)nc21 [Example 18] | 0.69 | 437 | 36.8 | 1.57 | 11.9 | 11.9 | 70 | 1.70 | – | – | – | –
3 | [2H]C([2H])([2H])N(C(=O)c1nc2n(n1)-c1ccc(Cl)c(Cl)c1C(c1c(F)cccc1F)=N[C@H]2C)C([2H])([2H])[2H] [Example 19, (4S)-7,8-dichlor-6-(2,6-difluorophenyl)-4-methyl-N,N-bis(trideuteriomethyl)-4H-[1,2,4]triazolo[1,5-a][1,4]benzodiazepine-2-carboxamide] | 1.98 | 2650 | 81.5 | 1.91 | 32.5 | 32.5 | 97 | 1.97 | 81.5 | 1.91 | 2650 | 32.5
4 | [2H]C([2H])([2H])NC(=O)c1nc2n(n1)-c1ccc(Cl)c(Cl)c1C(c1c(F)cccc1F)=N[C@H]2C [Example 20, (4S)-7,8-dichloro-6-(2,6-difluorophenyl)-4-methyl-N-(trideuteriomethyl)-4H-[1,2,4]triazolo[1,5-a][1,4]benzodiazepine-2-carboxamide] | 0.89 | 593 | 113.1 | 2.05 | 5.2 | 5.24 | 78 | 1.78 | – | – | – | –
5 | C[C@@H]1N=C(c2c(F)cccc2F)c2c(ccc(C(F)(F)F)c2Cl)-n2ncnc21 [Example 22, (4S)-7-chloro-6-(2,6-difluorophenyl)-4-methyl-8-(trifluoromethyl)-4H-[1,2,4]triazolo[1,5-a][1,4]benzodiazepine] | 1.02 | 1560 | 136.7 | 2.14 | 11.4 | 11.4 | 78 | 1.78 | – | – | – | –
6 | O=C(c1nc2n(n1)-c1ccc(Cl)c(Cl)c1C(c1c(F)cccc1F)=NC2)N1CC(O)C1 [Example 24, [7,8-dichloro-6-(2,6-difluorophenyl)-4H-[1,2,4]triazolo[1,5-a][1,4]benzodiazepin-2-yl]-(3-hydroxyazetidin-1-yl)methanone] | 0.45 | 273 | 86.7 | 1.94 | 3.1 | 3.14 | 88 | 1.88 | – | – | – | –
7 | C[C@@H]1N=C(c2c(F)cccc2F)c2c(ccc(Cl)c2Cl)-n2nc(C(=O)N3CC(O)C3)nc21 [Example 25, [(4S)-7,8-dichloro-6-(2,6-difluorophenyl)-4-methyl-4H-[1,2,4]triazolo[1,5-a][1,4]benzodiazepin-2-yl]-(3-hydroxyazetidin-1-yl)methanone] | 1.44 | 688 | 172.8 | 2.24 | 4 | 3.98 | 63 | 1.63 | – | – | – | –
8 | COCc1nc2n(n1)-c1ccc(Cl)c(Cl)c1C(c1c(F)cccc1F)=N[C@H]2C [Example 27, (4S)-7,8-dichloro-6-(2,6-difluorophenyl)-2-(methoxymethyl)-4-methyl-4H-[1,2,4]triazolo[1,5-a][1,4]benzodiazepine] | 1.08 | 707 | 61.8 | 1.79 | 11.4 | 11.4 | 69 | 1.69 | – | – | – | –
9 | COCCNC(=O)c1nc2n(n1)-c1ccc(Cl)c(Cl)c1C(c1c(F)cccc1F)=N[C@H]2C [Example 28, (4S)-7,8-dichloro-6-(2,6-difluorophenyl)-N-(2-methoxyethyl)-4-methyl-4H-[1,2,4]triazolo[1,5-a][1,4]benzodiazepine-2-carboxamide] | 1.08 | 578 | 147.4 | 2.17 | 3.9 | 3.92 | 56 | 1.56 | – | – | – | –
